The source of these data is ChEMBL document CHEMBL4011659, “Combining Elements from Two Antagonists of Formyl Peptide Receptor 2 Generates More Potent Peptidomimetic Antagonists” (J Med Chem, 2017).

The target in assay [1] is T1, fMet-Leu-Phe receptor (Homo sapiens) (UniProt P21462).
T1 sequence (whole entry): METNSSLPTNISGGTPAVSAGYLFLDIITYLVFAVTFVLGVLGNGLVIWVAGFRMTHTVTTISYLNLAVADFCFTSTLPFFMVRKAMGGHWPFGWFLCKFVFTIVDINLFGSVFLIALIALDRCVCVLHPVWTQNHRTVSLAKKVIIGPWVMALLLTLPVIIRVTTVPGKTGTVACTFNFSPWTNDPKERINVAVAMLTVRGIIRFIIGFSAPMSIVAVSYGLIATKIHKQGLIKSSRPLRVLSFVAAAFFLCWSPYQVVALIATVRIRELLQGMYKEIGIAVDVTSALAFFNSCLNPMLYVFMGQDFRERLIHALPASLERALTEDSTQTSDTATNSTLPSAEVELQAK
Put plainly: Antagonist activity at FPR1 in human peripheral blood polymorphonuclear neutrophils assessed as inhibition of fMLF-induced ROS production at <500 nM preincubated for 5 mins followed fMLF stimulation by isoluminol/HRP-based chemiluminescence assay.

For assay [2], the target named is T2, N-formyl peptide receptor 2 (Homo sapiens, UniProt P25090).
T2 sequence (P25090 whole entry): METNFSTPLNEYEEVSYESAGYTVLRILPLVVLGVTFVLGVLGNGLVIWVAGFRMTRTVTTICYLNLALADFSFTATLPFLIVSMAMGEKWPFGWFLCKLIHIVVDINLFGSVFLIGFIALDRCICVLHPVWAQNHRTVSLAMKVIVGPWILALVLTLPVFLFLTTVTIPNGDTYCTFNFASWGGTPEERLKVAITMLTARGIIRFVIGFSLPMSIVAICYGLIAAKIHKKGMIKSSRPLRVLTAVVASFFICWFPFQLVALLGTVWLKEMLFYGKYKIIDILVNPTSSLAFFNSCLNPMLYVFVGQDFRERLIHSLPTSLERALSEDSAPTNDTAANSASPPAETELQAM
Put plainly: Antagonist activity at FPR2 in human peripheral blood polymorphonuclear neutrophils assessed as inhibition of WKYMVM-peptide induced ROS production preincubated for 5 mins followed WKYMVM-peptide stimulation measured up to 20 mins by isoluminol-based chemiluminescence assay.

Assay [3] has as its target T2, N-formyl peptide receptor 2. Put plainly: Antagonist activity at FPR2 in human peripheral blood polymorphonuclear neutrophils assessed as inhibition of WKYMVM-peptide induced ROS production preincubated for 5 mins followed WKYMVM-peptide stimulation by isoluminol/HRP-based chemiluminescence assay.
Assay [4] addresses T3, N-formyl peptide receptor 2 (Homo sapiens) (UniProt P25090).
T3 sequence (whole entry): T2 sequence (P25090 whole entry)
Kind of assay: Antagonist activity at FPR2 in human peripheral blood polymorphonuclear neutrophils assessed as inhibition of WKYMVM-peptide induced ROS production at <500 nM preincubated for 5 mins followed WKYMVM-peptide stimulation by isoluminol/HRP-based chemiluminescence assay.

The target of assay [5] is T1, fMet-Leu-Phe receptor (Homo sapiens). Kind of assay: Antagonist activity at FPR1 in human peripheral blood polymorphonuclear neutrophils assessed as inhibition of fMLF-induced ROS production at >= 1 uM preincubated for 5 mins followed by fMLF stimulation by isoluminol/HRP-based chemiluminescence assay.
Another assay concerns Neutrophil. Kind of assay: Inhibition of PMA-induced superoxide production in human peripheral blood polymorphonuclear neutrophils at 500 nM preincubated for 5 mins followed PMA stimulation by isoluminol/HRP-based chemiluminescence assay. It counts as functional, cell-based.

Active and inactive are the calls of the source. The rule behind the calls is not given here. Peptide text beside a SMILES is read from it. * marks the point of attachment. RhodamineB = CCN(CC)c1ccc2c(-c3ccccc3C(=O)*)c3ccc(=[N+](CC)CC)cc-3oc2c1

Broadly, the IC50 is the midpoint of a concentration-inhibition curve. With `CCN(CC)c1ccc2c(-c3ccccc3C(=O)N[C@@H](CCC(N)=O)C(=O)N[C@@H](CCCNC(=N)N)C(=O)N[C@@H](CC(C)C)C(=O)N[C@@H](Cc3ccccc3)C(=O)N[C@@H](CCC(N)=O)C(=O)NC(C(=O)N[C@@H](CCCCN)C(=O)NCC(=O)N[C@@H](CCCNC(=N)N)C(=O)N[C@@H](CCCNC(=N)N)C(=O)O)C(C)C)c3ccc(=[N+](CC)CC)cc-3oc2c1` (single isomer, unassigned), the inhibition entry in assay [1] was “inactive”. For the same molecule, the IC50 in assay [2] was 0.06 µM.

For the molecule `CCN(CC)c1ccc2c(-c3ccccc3C(=O)N[C@@H](CCCCN)C(=O)N(CCC(=O)N[C@@H](CCCCN)C(=O)N(CCC(=O)N[C@@H](CCCCN)C(=O)N(CCC(=O)N[C@@H](CCCCN)C(=O)N(CCC(N)=O)Cc3ccccc3)Cc3ccccc3)Cc3ccccc3)Cc3ccccc3)c3ccc(=[N+](CC)CC)cc-3oc2c1`, in assay [1], the inhibition entry was “inactive”. Besides, the IC50 in assay [3] was 0.013 µM.

On to `CCN(CC)c1ccc2c(-c3ccccc3C(=O)N[C@@H](CCCCN)C(=O)N[C@@H](Cc3ccccc3)C(=O)N[C@@H](CCCCN)C(=O)N[C@@H](Cc3ccccc3)C(=O)N[C@@H](CCCCN)C(=O)N[C@@H](Cc3ccccc3)C(=O)N[C@@H](CCCCN)C(=O)N[C@@H](Cc3ccccc3)C(=O)N[C@@H](CCCCN)C(=O)N[C@@H](Cc3ccccc3)C(=O)N[C@@H](CCCCN)C(=O)N[C@@H](Cc3ccccc3)C(N)=O)c3ccc(=[N+](CC)CC)cc-3oc2c1` (RhodamineB-KFKFKFKFKFKF-NH2), for which the inhibition entry in assay [1] and in assay [4] was “inactive” each time.

Take `CCN(CC)c1ccc2c(-c3ccccc3C(=O)N[C@@H](CCCCN)C(=O)N(CCC(N)=O)Cc3ccccc3)c3ccc(=[N+](CC)CC)cc-3oc2c1`: in assay [1], the inhibition entry is “inactive”. For the same molecule, the IC50 in assay [3] worked out at 0.759 µM.

On to `CCCCCCCCCCCCCCCC(=O)N[C@@H](CCC(N)=O)C(=O)N[C@@H](CCCNC(=N)N)C(=O)N[C@@H](CC(C)C)C(=O)N[C@@H](Cc1ccccc1)C(=O)N[C@@H](CCC(N)=O)C(=O)NC(C(=O)N[C@@H](CCCCN)C(=O)NCC(=O)N[C@@H](CCCNC(=N)N)C(=O)N[C@@H](CCCNC(=N)N)C(N)=O)C(C)C` (single isomer, unassigned), for which the inhibition result in assay [5] is “Active”. Besides, in assay [3], the IC50 is 0.9 µM.

Turning to `CCN(CC)c1ccc2c(-c3ccccc3C(=O)N[C@@H](CCCCN)C(=O)N(CCC(=O)N[C@@H](CCCCN)C(=O)N(CCC(=O)N[C@@H](CCCCN)C(=O)N(CCC(N)=O)Cc3ccccc3)Cc3ccccc3)Cc3ccccc3)c3ccc(=[N+](CC)CC)cc-3oc2c1`, the inhibition result in assay [1] is “inactive”. Further, the IC50 in assay [3] was 0.028 µM.

On to `CCN(CC)c1ccc2c(-c3ccccc3C(=O)N[C@@H](CCCCN)C(=O)N(CCC(=O)N[C@@H](CCCCN)C(=O)N(CCC(=O)N[C@@H](CCCCN)C(=O)N(CCC(=O)N[C@@H](CCCCN)C(=O)N(CCC(=O)N[C@@H](CCCCN)C(=O)N(CCC(=O)N[C@@H](CCCCN)C(=O)N(CCC(N)=O)[C@@H](C)c3ccccc3)[C@@H](C)c3ccccc3)[C@@H](C)c3ccccc3)[C@@H](C)c3ccccc3)[C@@H](C)c3ccccc3)[C@@H](C)c3ccccc3)c3ccc(=[N+](CC)CC)cc-3oc2c1`, for which the inhibition entry in assay [1] was “inactive”. Also, the IC50 in assay [3] came out at 0.034 µM.

`CCN(CC)c1ccc2c(-c3ccccc3C(=O)N[C@@H](CCCCN)C(=O)N(CCC(=O)N[C@@H](CCCCN)C(=O)N(CCC(=O)N[C@@H](CCCCN)C(=O)N(CCC(=O)N[C@@H](CCCCN)C(=O)N(CCC(=O)N[C@@H](CCCCN)C(=O)N(CCC(N)=O)Cc3ccccc3)Cc3ccccc3)Cc3ccccc3)Cc3ccccc3)Cc3ccccc3)c3ccc(=[N+](CC)CC)cc-3oc2c1`: in assay [1], the inhibition entry is “inactive”. Further, the IC50 in assay [3] was determined as 0.018 µM.

As for `CCCCCCCCCCCCCCCC(=O)N[C@H](CCC(N)=O)C(=O)N[C@H](CCCNC(=N)N)C(=O)N[C@H](CC(C)C)C(=O)N[C@H](Cc1ccccc1)C(=O)N[C@H](CCC(N)=O)C(=O)N[C@@H](C(=O)N[C@H](CCCCN)C(=O)NCC(=O)N[C@H](CCCNC(=N)N)C(=O)N[C@H](CCCNC(=N)N)C(N)=O)C(C)C`, the inhibition result in assay [5] was “Active”. Besides, the IC50 in assay [3] turned out to be 1.12 µM.

`CCN(CC)c1ccc2c(-c3ccccc3C(=O)N[C@@H](CCCCN)C(=O)N(CCC(=O)N[C@@H](CCCCN)C(=O)N(CCC(=O)N[C@@H](CCCCN)C(=O)N(CCC(=O)N[C@@H](CCCCN)C(=O)N(CCC(=O)N[C@@H](CCCCN)C(=O)N(CCC(=O)N[C@@H](CCCCN)C(=O)N(CCC(N)=O)Cc3ccc(C)cc3)Cc3ccc(C)cc3)Cc3ccc(C)cc3)Cc3ccc(C)cc3)Cc3ccc(C)cc3)Cc3ccc(C)cc3)c3ccc(=[N+](CC)CC)cc-3oc2c1`: in assay [1], the inhibition result is “inactive”. Further, the IC50 in assay [3] was found to be 0.024 µM.

For the molecule `CCN(CC)c1ccc2c(-c3ccccc3C(=O)N[C@@H](CCCCN)C(=O)N(CCC(=O)N[C@@H](CCCCN)C(=O)N(CCC(=O)N[C@@H](CCCCN)C(=O)N(CCC(=O)N[C@@H](CCCCN)C(=O)N(CCC(=O)N[C@@H](CCCCN)C(=O)N(CCC(=O)N[C@@H](CCCCN)C(=O)N(CCC(=O)N[C@@H](CCCCN)C(=O)N(CCC(=O)N[C@@H](CCCCN)C(=O)N(CCC(N)=O)Cc3ccccc3)Cc3ccccc3)Cc3ccccc3)Cc3ccccc3)Cc3ccccc3)Cc3ccccc3)Cc3ccccc3)Cc3ccccc3)c3ccc(=[N+](CC)CC)cc-3oc2c1`, the inhibition entry in assay [1] was “inactive”. Further, the IC50 in assay [3] amounted to 0.041 µM.

On to `CCN(CC)c1ccc2c(-c3ccccc3C(=O)N[C@H](CCC(N)=O)C(=O)N[C@H](CCCNC(=N)N)C(=O)N[C@H](CC(C)C)C(=O)N[C@H](Cc3ccccc3)C(=O)N[C@H](CCC(N)=O)C(=O)N[C@@H](C(=O)N[C@H](CCCCN)C(=O)NCC(=O)N[C@H](CCCNC(=N)N)C(=O)N[C@H](CCCNC(=N)N)C(N)=O)C(C)C)c3ccc(=[N+](CC)CC)cc-3oc2c1`, for which the inhibition entry in assay [1] and in assay [4] was “inactive” in each case.

As for `CCN(CC)c1ccc2c(-c3ccccc3C(=O)N[C@@H](CCCCN)C(=O)N(CCC(=O)N[C@@H](CCCCN)C(=O)N(CCC(N)=O)Cc3ccccc3)Cc3ccccc3)c3ccc(=[N+](CC)CC)cc-3oc2c1`, the inhibition result in assay [1] is “inactive”. In addition, the 50% inhibitory concentration (IC50) in assay [3] worked out at 0.273 µM.

Turning to `CCN(CC)c1ccc2c(-c3ccccc3C(=O)N[C@@H](CCCCN)C(=O)N(CCC(=O)N[C@@H](CCCCN)C(=O)N(CCC(=O)N[C@@H](CCCCN)C(=O)N(CCC(=O)N[C@@H](CCCCN)C(=O)N(CCC(=O)N[C@@H](CCCCN)C(=O)N(CCC(=O)N[C@@H](CCCCN)C(=O)N(CCC(N)=O)Cc3ccc(F)cc3)Cc3ccc(F)cc3)Cc3ccc(F)cc3)Cc3ccc(F)cc3)Cc3ccc(F)cc3)Cc3ccc(F)cc3)c3ccc(=[N+](CC)CC)cc-3oc2c1`, in assay [1], the inhibition result is “inactive”. For the same molecule, in assay [3], the IC50 was 0.01 µM. In addition, the inhibition result with Neutrophil is “Active”.

In the case of `CCN(CC)c1ccc2c(-c3ccccc3C(=O)N[C@@H](CCCCN)C(=O)N(CCC(=O)N[C@@H](CCCCN)C(=O)N(CCC(=O)N[C@@H](CCCCN)C(=O)N(CCC(=O)N[C@@H](CCCCN)C(=O)N(CCC(=O)N[C@@H](CCCCN)C(=O)N(CCC(=O)N[C@@H](CCCCN)C(=O)N(CCC(=O)N[C@@H](CCCCN)C(=O)N(CCC(N)=O)Cc3ccccc3)Cc3ccccc3)Cc3ccccc3)Cc3ccccc3)Cc3ccccc3)Cc3ccccc3)Cc3ccccc3)c3ccc(=[N+](CC)CC)cc-3oc2c1`, the inhibition result in assay [1] was “inactive”. For the same molecule, the IC50 in assay [3] worked out at 0.035 µM.

For `CCN(CC)c1ccc2c(-c3ccccc3C(=O)N[C@@H](CCCCN)C(=O)N(CCC(=O)N[C@@H](CCCCN)C(=O)N(CCC(=O)N[C@@H](CCCCN)C(=O)N(CCC(=O)N[C@@H](CCCCN)C(=O)N(CCC(=O)N[C@@H](CCCCN)C(=O)N(CCC(=O)N[C@@H](CCCCN)C(=O)N(CCC(N)=O)[C@H](C)c3ccccc3)[C@H](C)c3ccccc3)[C@H](C)c3ccccc3)[C@H](C)c3ccccc3)[C@H](C)c3ccccc3)[C@H](C)c3ccccc3)c3ccc(=[N+](CC)CC)cc-3oc2c1`, the inhibition entry in assay [1] was “inactive”. Besides, the IC50 in assay [3] came out at 0.044 µM.

As for `CCN(CC)c1ccc2c(-c3ccccc3C(=O)N[C@@H](CCCCN)C(=O)N(CCC(=O)N[C@@H](CCCCN)C(=O)N(CCC(=O)N[C@@H](CCCCN)C(=O)N(CCC(=O)N[C@@H](CCCCN)C(=O)N(CCC(=O)N[C@@H](CCCCN)C(=O)N(CCC(=O)N[C@@H](CCCCN)C(=O)N(CCC(N)=O)Cc3cc(F)c(F)c(F)c3)Cc3cc(F)c(F)c(F)c3)Cc3cc(F)c(F)c(F)c3)Cc3cc(F)c(F)c(F)c3)Cc3cc(F)c(F)c(F)c3)Cc3cc(F)c(F)c(F)c3)c3ccc(=[N+](CC)CC)cc-3oc2c1`, the inhibition entry in assay [1] is “inactive”. In addition, in assay [3], the IC50 stood at 0.053 µM.
